Results: US20200010482A1, “INHIBITORS OF BETA SECRETASE” (Janssen Pharmaceutica NV, priority 2017, published 2020)

Columns and labels:
β-secretase I (BACE1) = β-secretase I (BACE1) (Homo sapiens, UniProt P56817); experiment: Biochemical assay, automated (CyclOps), BACE1; conditions: automated CyclOps bioassay
Procedure: (§1) Unless otherwise indicated all biochemicals were purchased from Sigma-Aldrich Chemical Company, Poole, Dorset, U.K. and non-aqueous solvents, of analytical or higher grade, were purchased from ThermoFisher Scientific, Loughborough, U.K. MilliQ water (Elix 5 & MilliQ Gradient; Merck Millipore) was used as the base aqueous solvent to make up the biological buffers. Base assay buffer was prepared by adding a 50 mM solution of citric acid (1.00244; Merck Biosciences) to stirring solution of 50 mM trisodium citrate (1.06448; Merck Biosciences) until a final pH of 5.0 was achieved. […] All assays were routinely carried out in 384-well assay plates (Costar 4514; Corning Life Sciences) and incubated at 37±1° C. for 60 min. prior to reading the endpoint fluorescence intensity. The (7-methoxyl coumarin-4-yl)acetic acid based substrate β-secretase substrate VI (M2465; Bachem) was prepared as a 1 mM stock in 100% DMSO (D/4121/PB08; ThermoFisher). Assay buffer was prepared by adding DMSO to base buffer to a final concentration of 1% (vol./vol.). β-secretase I (18.64 μM; “BACE1”) and β-secretase II (4.65 μM; “BACE2”) were obtained from Janssen Pharmaceutica, Beerse, Belgium and were stored as frozen aliquots (˜20 μl) and thawed as required.
(§2) Typically 12.5 μl of assay buffer was dispensed to rows B to P of the assay plate. To row A was added 18.75 μl of test compound diluted appropriately in assay buffer. A 6.25 μl aliquot of sample was transferred from row A to row B and the sample mixed three times by pipette. The process was repeated down the plate and 6.25 μl of solution discarded at row N post-mix. Rows O and P were designated as the positive and negative controls. To row P was added 6.25 μl base buffer. To rows A to O was added 6.25 μl enzyme (freshly prepared 40 nM BACE1 or 40 nM BACE2) diluted in base buffer. To initiate the assay 6.25 μl of freshly prepared 80 μM substrate, made up by diluting the 1 mM in 100% DMSO solution into HPLC grade water (Optima W6-212; ThermoFisher), was added to all the wells. The assay plate was covered and incubated at 37±1° C. for 60 min. The fluorescence intensity of the wells was read at 360/405 nm (excitation/emission) utilising a nine reads per well protocol (50 ms integration; density of 3, 0.25 mm spacing; SpectraMAX Paradigm plate reader; TUNE cartridge; SoftMax Pro v 6.3 software; Molecular Devices UK Ltd., Wokingham, Berkshire, UK) and outputting the median value of the nine reads as a text file. Data analysis was carried out using Prism software v 6.3 (GraphPad Inc., San Diego, Calif., USA) using the non-linear regression analysis models supplied by the vendor. For IC50 determinations the four parameter logistic variable slope model was used to fit the raw fluorescence intensity data with the ‘bottom’ fixed to the negative control.
(§3) The CyclOps bioassay module consisted of a fraction collection station, a reagent station, liquid handling robotics, plate store and an integrated plate reader (SpectraMAX Paradigm, TUNE cartridge, SoftMax Pro v 6.3; Molecular Devices). The fraction collection station composed of a 384 well collection plate (P-384-240SQ-C; Axygen, Union City, Calif., USA) mounted on a H-portal carriage (Festo AG & Co. KG, Esslingen, Germany), a syringe drive and a two-way six port injection valve fitted with a 200 μl loop (VICI AG International, Schenkon Switzerland). The output of the injection valve was addressable to all the positions of a 384 well collection plate. The reagent station consisted of hydraulically cooled (10-12° C.) aluminium segments; each manufactured to house a SBS microtiter plate footprint. Independent addressable reagent stations were housed within these sections. Where required, custom aluminium housings were used to accommodate standard laboratory plastic ware (e.g. Eppendorf tubes, Falcon tubes, etc.). As and when required the reagent reservoirs were covered and the lids contained holes through which the Teflon-coated probe could access solutions. […]

β-secretase II (BACE2) = target: T1, β-secretase II (BACE2) (Homo sapiens, UniProt Q9Y5Z0); experiment: Biochemical assay, automated (CyclOps), BACE2; conditions: automated CyclOps bioassay
T1 sequence (Q9Y5Z0 63-518): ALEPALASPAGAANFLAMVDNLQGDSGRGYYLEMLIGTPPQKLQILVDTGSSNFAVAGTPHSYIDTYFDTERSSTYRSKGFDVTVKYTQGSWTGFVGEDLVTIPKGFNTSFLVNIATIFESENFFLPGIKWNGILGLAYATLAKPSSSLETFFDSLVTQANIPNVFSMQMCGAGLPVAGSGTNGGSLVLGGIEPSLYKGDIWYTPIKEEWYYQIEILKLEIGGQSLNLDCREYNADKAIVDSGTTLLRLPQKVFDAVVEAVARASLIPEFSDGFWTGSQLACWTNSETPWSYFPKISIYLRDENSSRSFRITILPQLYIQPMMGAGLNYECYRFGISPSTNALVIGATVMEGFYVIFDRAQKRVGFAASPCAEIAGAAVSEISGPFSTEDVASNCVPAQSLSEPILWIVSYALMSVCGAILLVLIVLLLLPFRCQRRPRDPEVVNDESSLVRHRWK
Procedure: as §1, §2, §3

Chain of β-secretase I (BACE1) (P56817 46-501): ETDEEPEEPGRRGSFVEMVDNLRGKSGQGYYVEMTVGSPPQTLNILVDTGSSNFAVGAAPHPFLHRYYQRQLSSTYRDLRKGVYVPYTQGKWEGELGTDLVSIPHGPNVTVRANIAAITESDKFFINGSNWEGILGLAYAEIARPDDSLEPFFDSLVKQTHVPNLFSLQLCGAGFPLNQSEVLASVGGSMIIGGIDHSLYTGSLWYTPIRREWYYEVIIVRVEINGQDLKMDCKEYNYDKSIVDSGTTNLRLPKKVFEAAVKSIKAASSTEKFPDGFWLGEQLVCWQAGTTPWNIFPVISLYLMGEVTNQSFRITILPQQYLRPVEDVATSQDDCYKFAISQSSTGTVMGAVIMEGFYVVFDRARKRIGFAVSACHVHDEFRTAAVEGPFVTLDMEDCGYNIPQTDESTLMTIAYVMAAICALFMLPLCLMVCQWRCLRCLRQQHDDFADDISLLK

AUTOMATED ASSAY BACE1 pIC50 (β-secretase I (BACE1)) | AUTOMATED ASSAY BACE2 pIC50 (β-secretase II (BACE2)) | IC50 (β-secretase I (BACE1); read-out: AUTOMATED ASSAY BACE1 pIC50 (converted)) [nM] | IC50 (β-secretase II (BACE2); read-out: AUTOMATED ASSAY BACE2 pIC50 (converted)) [nM] | Structure (SMILES)
5.09 | 5.17 |  |  | COc1ncc(-c2c(C)noc2C)c2c1C[C@]1(c3cc(OCCC4CCCCC4)ccc3F)N=C(N)SC[C@@H]1C2 [Compound 149]
7.76 | 7.63 |  |  | COc1ncc(/C=C/c2ccc(F)cc2)c2c1C[C@]1(c3ccc(F)cc3F)N=C(N)SC[C@@H]1C2 [Compound 48]
7.42 | 6.43 |  |  | COc1ncc(-c2ccccc2C)c2c1C[C@]1(c3cc(OCCc4c(C)noc4C)ccc3F)N=C(N)SC[C@@H]1C2 [Compound 144]
7.4 | 7.03 |  |  | COc1ncc(-c2coc3ccccc23)c2c1C[C@]1(c3ccc(F)cc3F)N=C(N)SC[C@@H]1C2 [Compound 130]
8.4 | 7.28 |  |  | COc1ncc(-c2ccccc2C)c2c1C[C@]1(c3cc(OCC4CCC4)ccc3F)N=C(N)SC[C@@H]1C2 [Compound 142]
7.52 | 5.65 |  |  | COc1cc(C)c(-c2cnc(OC)c3c2C[C@H]2CSC(N)=N[C@@]2(c2cc(OCC4CCOCC4)ccc2F)C3)cn1 [Compound 152]
8.11 | 7.63 |  |  | COc1ncc(-c2cccc(C)c2C)c2c1C[C@]1(c3ccc(F)cc3F)N=C(N)SC[C@@H]1C2 [Compound 56]
6.43 | 4.78 |  |  | COc1ccc(F)cc1-c1cnc(OC)c2c1C[C@H]1CSC(N)=N[C@@]1(c1cc(OCC3CCOCC3)ccc1F)C2 [Compound 143]
7.82 | 7.16 |  |  | COc1ncc(-c2cccc3cnccc23)c2c1C[C@]1(c3ccc(F)cc3F)N=C(N)SC[C@@H]1C2 [Compound 132]
7.68 | 7.15 |  |  | COc1ncc(-c2ccc(Cl)c(C)c2)c2c1C[C@]1(c3ccc(F)cc3F)N=C(N)SC[C@@H]1C2 [Compound 59]
7.51 | 7.88 |  |  | COc1ncc(-c2ccccc2)c2c1C[C@]1(c3cc(OCc4ccc(F)cc4)ccc3F)N=C(N)SC[C@@H]1C2 [Compound 154]
6.74 | 6.63 |  |  | COc1ncc(-c2c(C)noc2C)c2c1C[C@]1(c3cc(OC4CCOCC4)ccc3F)N=C(N)SC[C@@H]1C2 [Compound 146]
7.77 | 6.12 |  |  | COc1ncc(-c2c(C)noc2C)c2c1C[C@]1(c3cc(OCC4CCC4)ccc3F)N=C(N)SC[C@@H]1C2 [Compound 155]
6 | 5.19 |  |  | COc1ncc(-c2c(C)noc2C)c2c1C[C@]1(c3cc(OCCOC4CCCCC4)ccc3F)N=C(N)SC[C@@H]1C2 [Compound 148]
7.7 | 6.64 |  |  | COc1ncc(-c2c(C)noc2C)c2c1C[C@]1(c3cc(OCc4cccc(C#N)c4)ccc3F)N=C(N)SC[C@@H]1C2 [Compound 147]
8.6 | 7.67 |  |  | COc1ncc(-c2csc3ccccc23)c2c1C[C@]1(c3ccc(F)cc3F)N=C(N)SC[C@@H]1C2 [Compound 133]
7.34 | 6.83 |  |  | COc1ncc(-c2cc(C(F)(F)F)ccc2F)c2c1C[C@]1(c3ccc(F)cc3F)N=C(N)SC[C@@H]1C2 [Compound 51]
6.73 | 6.64 |  |  | COc1ncc(-c2c(C)noc2C)c2c1C[C@]1(c3cc(OCc4c(C)noc4C)ccc3F)N=C(N)SC[C@@H]1C2 [Compound 153]
6.77 | 5.6 |  |  | COc1ncc(-c2cccc3cnn(C)c23)c2c1C[C@]1(c3ccc(F)cc3F)N=C(N)SC[C@@H]1C2 [Compound 127]
 |  | 61.7 | 32.4 | COc1ncc(-c2ccccc2)c2c1C[C@]1(c3cc(OCc4ccccc4)ccc3F)N=C(N)SC[C@@H]1C2 [Compound 138]
